Data published in paper PMC6310130 (Molecular and biochemical parasitology, 2014).
Where a SMILES comes first, the peptide text is derived from it. [ ]: non-standard residue; d: D form. The star is where a group is joined. Sta = CC(C)C[C@H](N)[C@@H](O)CC(=O)O; Isovaleryl = CC(C)CC(=O)*

Target: Plasmepsin V (Plasmodium falciparum, UniProt Q8I6Z5)
Test: fluorogenic HRPII peptide cleavage assay, recombinant refolded enzyme, pH […]
Assay type: biochemical

Plasmepsin V, sequence (Q8I6Z5 81-521): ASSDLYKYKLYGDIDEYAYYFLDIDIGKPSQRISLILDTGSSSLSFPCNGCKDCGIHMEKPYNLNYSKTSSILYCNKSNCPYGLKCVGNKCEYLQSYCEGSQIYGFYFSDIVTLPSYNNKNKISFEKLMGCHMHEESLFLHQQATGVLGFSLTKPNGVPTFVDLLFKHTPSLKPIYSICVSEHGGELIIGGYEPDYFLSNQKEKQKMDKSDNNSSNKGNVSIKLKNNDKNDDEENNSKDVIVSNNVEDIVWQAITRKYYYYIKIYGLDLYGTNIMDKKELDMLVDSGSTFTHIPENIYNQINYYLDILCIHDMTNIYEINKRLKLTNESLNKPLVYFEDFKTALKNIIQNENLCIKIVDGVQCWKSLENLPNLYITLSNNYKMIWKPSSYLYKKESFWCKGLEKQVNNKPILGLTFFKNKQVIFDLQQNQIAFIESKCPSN

| Compound | IC50 [µM] |
| --- | --- |
| CC(C)CC(=O)N[C@H](C(=O)N[C@H](C(=O)N[C@@H](CC(C)C)[C@@H](O)CC(=O)N[C@@H](C)C(=O)N[C@@H](CC(C)C)[C@@H](O)CC(=O)O)C(C)C)C(C)C [pepstatin A] (Isovaleryl-VV[Sta]A[Sta]-OH) | 22 |
| KNI-10742 | 108 |
| KNI-10743 | 44 |
